The test system of this data set is db/db mice. As to the kind of experiment: Effect of the compound on db/db mouse. It counts as in vivo. The conditions noted are these: 30 mg/kg ip, 8 mice per group. The source says: Experimental animals: nineteen-week-old db/db male mice (C57BL/6J-Lepr^db/Lepr^db) were obtained from Shanghai Model Organisms Co., Ltd., and acclimatized for at least 1 week before experiments. The mice had ad libitum access to standard chow and water.
Normal control: The C57BL/6 male mice fed on standard irradiated chow diet (Shuyishuer Inc. cat. no. D12450J) from Changzhou Shuyishuer Biotechnology Co., Ltd. (Shuyishuer Inc.) were used as the normal control.
Mice were randomly divided into 7 groups, wherein 8 mice in each group, and the mice in each group were subjected to intraperitoneal injection to administer: (1) only vehicle (no DMSO) group: 0% DMSO+39% PEG300 (Selleck, cat. no. S6704)+5% Tween-80 (Selleck, cat. no. S6702)+56% distilled water, (2) DMSO group: 1% DMSO+39% PEG300+5% Tween-80+55% H2O (DMSO vehicle), (3) C3 group: Compound 3A was in DMSO vehicle, (4) C4 group: Compound 4A in DMSO vehicle, (5) SIII group: Sudan III DMSO vehicle, (6) GW5074 group: Compound A1 in DMSO vehicle, (7) DP group: Compound A5 in DMSO vehicle. For groups (3)-(7), the compound (30 mg/kg, administration volume 150 μL) was administered through intraperitoneally injection for consecutive 2 weeks, and once a day. The food and water intake were measured with an analytical electronic balance.
Bodyweight was weighed every day.
If time permitted, tail vein blood (30-50 μL) was collected every 1-3 days.
24 hours after the time point of the last injection, end point maxillary surface blood sampling was performed on each mouse. All mice were Euthanized by cervical dislocation, and then tissue sample (e.g., liver samples) were obtained and stored in Eppendorf tubes at −80° C. for assay.
12 days after initiation of administration, each mouse was scanned by a minispec nuclear magnetic resonance (NMR) instrument (Bruker LF50 II “Minispec” body composition analyzer, Bruker Optics) that was designed for experimental animals, and based on the measurement of solid and liquid parts of the samples, the body fat and lean body weight were determined by this device.
Serum: Tail vein blood samples (30-50 μL) were left to coagulate in […] blood collection tubes (Jiangsu Kangjian Medical Products Co., Ltd., model KJ002) at room temperature without interference, and then centrifuged at 2,000×g for 10 minutes at 4° C. to remove the clot. Supernatant was collected to obtain the serum.
Liver: Liver samples were obtained as described in (2). 100 mg of liver tissue was homogenized in 0.9 mL of absolute alcohol under ice-cold conditions, and then centrifuged (2,500 r.p.m/min, 10 min). Supernatant was collected, and then stored at −80° C.
The kits were used according to the instruction from manufacturer (TAG: TG kit, cat. no. A110-1-1; TC: T-CHO kit, cat. no. A111-1. FFA: NEFA kit, cat. No. A042-2-1; they were all from Nanjing Jiancheng Bioengineering Institute). TAG, TC and FFA levels in serum and liver samples were determined.
According to the lipidomic method as described above, the contents of liver total lipid, glycerolipid, sterol lipid, neutral sphingolipid and polar lipid were analyzed. The log 2-fold change (log2 FC) and statistical significance (p-value) relative to the DMSO group were calculated.

For the compound `O=C1Nc2ccc(I)cc2C1=Cc1cc(Br)c(O)c(Br)c1` [Compound A1, 3-(3,5-dibromo-4-hydroxylbenzylidene)-5-iodoindolin-2-one, reference compound], the “mice died in the experiment” value was “One mouse”.
